The results in this text go back to ChEMBL document CHEMBL5344405, “Seleno-vs. thioether triazine derivatives in search for new anticancer agents overcoming multidrug resistance in lymphoma” (Eur J Med Chem, 2022).

Data set [1] deals with Jurkat. The experiment in a line: Induction of cell cycle arrest in human Jurkat cells assessed as reduction in cyclin E1 gene expression at 50 uM incubated for 24 hrs by qPCR analysis. The format is functional, cell-based. (In qPCR the cycle at which signal appears reflects the starting amount.)
Data set [2] in a line: Upregulation of ABCB1 gene expression in human SH-SY5Y cells at 20 uM incubated for 96 hrs by RT-PCR analysis. The format is toxicity, cell-based.
Data set [3] concerns L5178Y. Nature of the data set: Cytotoxicity against parental mouse L5178Y cells assessed as inhibition of cell growth incubated for 24 hrs by MTT assay. In kind it is functional, cell-based.
The test system of data set [4] is Jurkat. Nature of the data set: Induction of cell cycle arrest in human Jurkat cells assessed as increase in p53 transcription at 50 uM incubated for 24 hrs by qPCR analysis. The format is functional, cell-based.
The nature of data set [5]: Cytotoxicity against human skin fibroblast cells assessed as inhibition of cell growth incubated for 72 hrs by MTS assay. In kind it is toxicity, cell-based. (Tetrazolium dyes change colour on reduction, which living cells bring about.)
Data set [6] in a line: Upregulation of ABCG2 gene expression in human SH-SY5Y cells at 20 uM incubated for 96 hrs by RT-PCR analysis. The format is toxicity, cell-based.
The test system of data set [7] is Jurkat. Nature of the data set: Induction of cell cycle arrest in human Jurkat cells assessed as reduction in cyclin D1 gene expression at 50 uM incubated for 24 hrs by qPCR analysis. The format is functional, cell-based.
In data set [8] the test system is Jurkat. Nature of the data set: Synergistic induction of cell cycle arrest in human Jurkat cells assessed as increase in p21 gene expression at 50 uM incubated for 24 hrs in presence of doxorubicin at 50 nM by qPCR analysis. The format is functional, cell-based.
Data set [9] concerns Jurkat. The experiment in a line: Induction of cell cycle arrest in human Jurkat cells assessed as increase in p21 transcription at 50 uM incubated for 24 hrs by qPCR analysis. In kind it is functional, cell-based.
Data set [10] deals with Jurkat. The experiment in a line: Synergistic induction of cell cycle arrest in human Jurkat cells assessed as reduction in cyclin E1 gene expression at 50 uM incubated for 24 hrs in presence of doxorubicin at 50 nM by qPCR analysis. In kind it is functional, cell-based.
Data set [11] has as its system L5178Y. Nature of the data set: Cytotoxicity against multidrug resistant mouse L5178Y cells expressing ABCB1 assessed as inhibition of cell growth incubated for 24 hrs by MTT assay. The format is functional, cell-based.
For data set [12], the system named is Jurkat. The experiment in a line: Synergistic induction of cell cycle arrest in human Jurkat cells assessed as reduction in cyclin D1 gene expression at 50 uM incubated for 24 hrs in presence of doxorubicin at 50 nM by qPCR analysis. In kind it is functional, cell-based.
Data set [13] has as its system Jurkat. The experiment in a line: Synergistic induction of cell cycle arrest in human Jurkat cells assessed as increase in p53 gene expression at 50 uM incubated for 24 hrs in presence of doxorubicin at 50 nM by qPCR analysis. The format is functional, cell-based.
Data set [14] deals with L5178Y. The experiment in a line: Antiproliferative activity against multidrug resistant mouse L5178Y cells expressing ABCB1 assessed as inhibition of cell growth incubated for 72 hrs by MTT assay. The format is functional, cell-based.
Data set [15] can be described thus: Upregulation of ABCC1 gene expression in human SH-SY5Y cells at 20 uM incubated for 96 hrs by RT-PCR analysis. The format is toxicity, cell-based.
For data set [16], the system named is L5178Y. Nature of the data set: Synergistic antiproliferative activity against multidrug resistant mouse L5178Y cells expressing ABCB1 assessed as combination index at 60 uM incubated for 72 hrs in presence of doxorubicin at 17.242 uM by checkerboard assay. In kind it is functional.
In data set [17] the test system is L5178Y. Nature of the data set: Antiproliferative activity against parental mouse L5178Y cells assessed as inhibition of cell growth incubated for 72 hrs by MTT assay. In kind it is functional, cell-based.
Data set [18] in a line: Cytotoxicity against human HuT 102 cells assessed as inhibition of cell growth incubated for 72 hrs by MTS assay. The format is functional, cell-based. Conditions: HuT-102, 72 h.
A short description of data set [19]: Selectivity index, ratio of IC50 for parental mouse L5178Y cells to IC50 for multidrug resistant mouse L5178Y cells expressing ABCB1. In kind it is functional.
In data set [20] the test system is L5178Y. The experiment in a line: Synergistic antiproliferative activity against multidrug resistant mouse L5178Y cells expressing ABCB1 assessed as combination index at 200 uM incubated for 72 hrs in presence of doxorubicin at 17.242 uM by checkerboard assay. The format is functional.
Data set [21] deals with Jurkat. Nature of the data set: Induction of cell cycle arrest in human Jurkat cells assessed as increase in p21 gene expression at 50 uM incubated for 24 hrs by qPCR analysis. The format is functional, cell-based.

SMILES strings stand for the structures. Calls of active or inactive are those of the source. The rule behind the calls is not given here.

The term IC50 denotes the concentration that inhibits the measured activity by half. Take `CN1CCN(c2nc(N)nc(CCCSc3ccc4ccccc4c3)n2)CC1.Cl`: the result in data set [1], in data set [4], in data set [7], in [8], in data set [9] and in data set [10] was Active. The result in [12] and in data set [13] was Active. The Activity entry in data set [2], in data set [6] and in [15] was “Toxic” in each case. Also, the IC50 stood at 11.4 µM in data set [3]; 16.7 µM in data set [11]; 5.35 µM in data set [14]; 6.71 µM in [17]; 19.7 µM in data set [18]. For the same compound, the IC50 at 72 h in data set [5] was determined as 79.1 µM. For the same compound, in data set [16], the CI came to 0.18.
Turning to `CCCC([Se]c1ccccc1)c1nc(N)nc(N2CCN(C)CC2)n1.Cl` (configuration not stated), the result in data set [1], in data set [7], in [8], in data set [21], in [12] and in [13] was Active. In addition, the “Ratio IC50” value in [19] is recorded as above 2. The IC50 in data set [3] came to 38.6 µM; in data set [11], 76.8 µM; in data set [14], 6.03 µM; in data set [17], 14.4 µM; in [18], 54.3 µM. Further, the CI in data set [20] came to 0.092. Also, in data set [5], the IC50 at 72 h is above 100 µM.
